Measurements: ChEMBL document CHEMBL1671649, “Mutations in three distinct loci cause resistance to peptide deformylase inhibitors in Bacillus subtilis” (2009)

Assays:
Format in all cases: functional
[1] = tested on: Bacillus subtilis; assay: Antimicrobial activity against Bacillus subtilis harboring fmt G118D mutant after 17 hrs by microtiter broth dilution method
[2] = tested on: Bacillus subtilis; assay: Antimicrobial activity against Bacillus subtilis harboring fmt R116P mutant after 17 hrs by microtiter broth dilution method
[3] = tested on: Bacillus subtilis; assay: Antimicrobial activity against Bacillus subtilis harboring glyA with deletion mutation of base pair 661 to 663 after 17 hrs by microtiter broth dilution method
[4] = tested on: Bacillus subtilis; assay: Antimicrobial activity against Bacillus subtilis harboring fmt with deletion mutation at base pair 119 after 17 hrs by microtiter broth dilution method
[5] = tested on: Bacillus subtilis; assay: Antimicrobial activity against Bacillus subtilis harboring fmt P113L mutant after 17 hrs by microtiter broth dilution method
[6] = tested on: Bacillus subtilis; assay: Antimicrobial activity against Bacillus subtilis harboring fmt P120L mutant after 17 hrs by microtiter broth dilution method
[7] = tested on: Bacillus subtilis; assay: Antimicrobial activity against Bacillus subtilis harboring folD E17Q mutant after 17 hrs by microtiter broth dilution method
[8] = tested on: Bacillus subtilis; assay: Antimicrobial activity against Bacillus subtilis harboring fmt S110P mutant after 17 hrs by microtiter broth dilution method
[9] = tested on: Bacillus subtilis; assay: Antimicrobial activity against Bacillus subtilis harboring fmt AGA to TGA and R3stop mutation after 17 hrs by microtiter broth dilution method
[10] = tested on: Bacillus subtilis; assay: Antimicrobial activity against Bacillus subtilis harboring fmt with base pair insertion at position 745 after 17 hrs by microtiter broth dilution method
[11] = tested on: Bacillus subtilis; assay: Antimicrobial activity against Bacillus subtilis harboring folD T184M mutant after 17 hrs by microtiter broth dilution method
[12] = tested on: Bacillus subtilis; assay: Antimicrobial activity against Bacillus subtilis harboring fmt with 295 to 639 base pair deletion mutation after 17 hrs by microtiter broth dilution method
[13] = tested on: Bacillus subtilis; assay: Antimicrobial activity against Bacillus subtilis harboring fmt H108R mutant after 17 hrs by microtiter broth dilution method
[14] = tested on: Bacillus subtilis; assay: Antimicrobial activity against Bacillus subtilis harboring fmt R116C mutant after 17 hrs by microtiter broth dilution method
[15] = tested on: Bacillus subtilis; assay: Antimicrobial activity against Bacillus subtilis harboring folD with deletion mutation of base pair 507 to 518 after 17 hrs by microtiter broth dilution method
[16] = tested on: Bacillus subtilis; assay: Antimicrobial activity against Bacillus subtilis harboring fmt with deletion mutation at base pair 745 after 17 hrs by microtiter broth dilution method
[17] = tested on: Bacillus subtilis; assay: Antimicrobial activity against Bacillus subtilis harboring folD S71Q, S72Q and L73P mutant after 17 hrs by microtiter broth dilution method

Measured: MIC

CCCCC[C@H](CC(=O)NO)C(=O)N[C@H](C(=O)N1CCC[C@H]1CO)C(C)C [ACTINONIN]
48 µg/mL: [14]
192 µg/mL: [4] | [7] | [9] | [11]
> 512 µg/mL: [1] | [2] | [3] | [6] | [8] | [12] | [13] | [15] | [17]
96 µg/mL: [5] | [10] | [16]
